Laboratory results published in patent US10259856B2, “Protease stabilized acylated insulin analogues” (priority 2008, dated 2019).

Legend:
[1] = target: T1, human insulin receptor (IR-A) (Homo sapiens, UniProt P06213); assay: Insulin receptor affinity, SPA antibody capture assay (0% HSA); type: binding; conditions: affinity relative to human insulin
Experimental: (§1) The affinity of the acylated insulin analogues of this invention for the human insulin receptor is determined by a SPA assay (Scintillation Proximity Assay) microtiterplate antibody capture assay. […] Reagent mix for a single Packard Optiplate (Packard No. 6005190) is composed of 2.4 μl of a 1:5000 diluted purified recombinant human insulin receptor (either with or without exon 11), an amount of a stock solution of A14Tyr[^125I]-human insulin corresponding to 5000 cpm per 100 μl of reagent mix, 12 μl of a 1:1000 dilution of F12 antibody, 3 ml of SPA-beads and binding buffer to a total of 12 ml. A total of 100 μl reagent mix is then added to each well in the Packard Optiplate and a dilution series of the insulin derivative is made in the Optiplate from appropriate samples. The samples are then incubated for 16 hours while gently shaken. The phases are the then separated by centrifugation for 1 min and the plates counted in a Topcounter. The binding data were fitted using the nonlinear regression algorithm in the GraphPad Prism 2.01 (GraphPad Software, San Diego, Calif.) and affinities are expressed relative (in percentage (%)) to the affinity of human insulin.

[2] = Hydrophobicity by reverse phase HPLC under isocratic conditions; type: physicochemical; conditions: isocratic RP-HPLC, pH 7.3; human insulin as reference (k'rel = 1)
Experimental: The void time of the HPLC system, t0, is determined by injecting 5 μl of 0.1 mM NaNO3. Running conditions:
Column: Lichrosorb RP-C18, 5 μm, 4×250 mm
Buffer A: 0.1 M natrium phosphate pH 7.3, 10 vol % CH3CN

[3] = target: T1, human insulin receptor (IR-A); assay: Insulin receptor affinity, SPA assay with binding buffer containing 4.5% HSA; conditions: 4.5% HSA in binding buffer; affinity relative to human insulin
Experimental: as §1

T1 sequence (P06213 28-746 isoform P06213-2 limits assumed): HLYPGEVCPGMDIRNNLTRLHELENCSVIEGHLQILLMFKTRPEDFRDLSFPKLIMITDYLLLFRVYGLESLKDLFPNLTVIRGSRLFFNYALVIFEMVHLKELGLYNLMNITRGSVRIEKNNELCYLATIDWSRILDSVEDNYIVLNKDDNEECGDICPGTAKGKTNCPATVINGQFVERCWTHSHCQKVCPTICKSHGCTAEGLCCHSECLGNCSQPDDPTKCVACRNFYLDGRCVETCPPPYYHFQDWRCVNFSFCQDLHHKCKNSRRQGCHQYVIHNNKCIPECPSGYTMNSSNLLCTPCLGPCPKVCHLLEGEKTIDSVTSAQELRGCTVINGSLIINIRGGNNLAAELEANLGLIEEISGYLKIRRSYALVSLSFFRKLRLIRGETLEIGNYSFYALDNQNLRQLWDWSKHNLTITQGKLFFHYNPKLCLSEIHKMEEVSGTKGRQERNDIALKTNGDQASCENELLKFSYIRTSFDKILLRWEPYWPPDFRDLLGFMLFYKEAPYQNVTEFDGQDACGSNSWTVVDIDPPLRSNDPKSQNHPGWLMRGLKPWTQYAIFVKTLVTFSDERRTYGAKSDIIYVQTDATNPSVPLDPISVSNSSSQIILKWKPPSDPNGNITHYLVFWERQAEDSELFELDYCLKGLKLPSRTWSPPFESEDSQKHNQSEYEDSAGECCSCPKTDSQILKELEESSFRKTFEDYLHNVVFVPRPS
T1 sequence (P06213 763-1382 partner limits assumed): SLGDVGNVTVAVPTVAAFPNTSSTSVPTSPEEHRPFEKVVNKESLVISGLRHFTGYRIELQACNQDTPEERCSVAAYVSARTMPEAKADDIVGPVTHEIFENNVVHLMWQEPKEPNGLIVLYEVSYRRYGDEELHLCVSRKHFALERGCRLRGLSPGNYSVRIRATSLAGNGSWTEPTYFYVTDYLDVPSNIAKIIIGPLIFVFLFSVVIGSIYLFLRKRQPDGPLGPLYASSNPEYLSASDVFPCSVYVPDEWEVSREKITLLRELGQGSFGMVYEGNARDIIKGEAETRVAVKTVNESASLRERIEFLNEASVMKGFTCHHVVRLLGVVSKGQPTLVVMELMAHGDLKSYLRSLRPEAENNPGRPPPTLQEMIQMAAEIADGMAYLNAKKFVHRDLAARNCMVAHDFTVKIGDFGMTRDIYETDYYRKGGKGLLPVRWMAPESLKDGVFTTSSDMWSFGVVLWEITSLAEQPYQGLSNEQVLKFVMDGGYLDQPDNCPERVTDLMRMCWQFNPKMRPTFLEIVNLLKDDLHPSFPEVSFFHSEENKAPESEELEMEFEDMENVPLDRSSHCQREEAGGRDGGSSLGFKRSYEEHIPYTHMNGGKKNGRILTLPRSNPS

Row | Substance | Relative IR-A affinity (@ 0% HSA) (%) [1] | Relative hydrophobicity, k'relderiv [2] | Relative IR-A affinity (@ 4.5% HSA) (%) [3]
1 | A14E, B25H, B29K(N^ε3-Carboxy-5-octadecanedioylaminobenzoyl), desB30 Human Insulin [Example 4] | 3.4% | .48 | 
2 | A14E, B25H, B29K(N^ε4-([4-({19-Carboxynonadecanoylamino}methyl)trans-cyclohexane-carbonyl-]-γGlu-γGlu), desB30 Human Insulin [Example 12] | 1.7% | .94 | 
3 | A14E, B25H, B29K(N^ε4-([4-({19-Carboxynonadecanoylamino}methyl)trans-cyclohexanecarbonyl]-γGlu), desB30 Human Insulin [Example 7] | 2.1% | 2.78 | 
4 | A14E, B25H, B29K(N^ε (N-Octadecandioyl-N-carboxymethyl)-beta-alanyl), desB30 Human Insulin [Example 6] | 2.6% |  | .04%
5 | A14E, B25H, B29K(N^ε(5-Eicosanedioylaminoisophthalic acid)), desB30 Human Insulin [Example 47] | 1.2% |  | 0.10%
6 | A14E, B25H, B29K(N^εEicosanedioyl-Aoc), desB30 Human Insulin [Example 53] | 2.3% |  | 0.03%
7 | A14E, B25H, B29K(N^εMyristyl), desB30 Human Insulin [Example 10] | 9.5% | 14.60 | 
8 | A14E, B25H, B29K(N^εOctadecanedioyl-γGlu-Abu-Abu-Abu-Abu), desB30 Human Insulin [Example 41] | 1.6% |  | .31%
9 | A14E, B25H, B29K(N^εeicosanedioyl-γGlu-(3-(2-{2-[2-(2-aminoethoxy)ethoxy]ethoxy}ethoxy)propionyl-γGlu), desB30 Human Insulin [Example 17] | .9% | .57 | 
10 | A14E, B25H, B29K(N^εoctadecandioyl-γGlu-PEG7), desB30 Human Insulin [Example 15] | 1.9% | .43 | 
11 | A14E, B25H, B29K(N^ε—N-octadecandioyl-N-(2-carboxyethyl)glycyl), desB30 Human Insulin [Example 5] | 2.5% | .23 | 
